These results are taken from PubChem BioAssay AID493240 (Broad Institute, 2011).

What is called AC50 is the midpoint of the concentration-response curve, whichever way the signal moves.

The experiment relates to SK-MEL-5 viability, ATP luminescence (CellTiter-Glo), 24 h. The experiment can be described thus: SK-MEL-5 parental cell viability loss, dose response, orthogonal assay for MITF inhibitor project, CellTiter-Glo, cherry-picked, set 3 (AID 493240). For orientation: ATP-based viability assays read luminescence as a measure of living cells.
For the compound `Cc1[nH]c2ccccc2c1C(=O)CCl`, the half-maximal activity concentration (AC50) was 22.1 µM.
Consider `Cc1ccc(-c2nnc(SCC(=O)Nc3ccccc3F)o2)cc1`, for which the AC50 was 21.7 µM.
Then `COc1cc(/C=N/N=C(N)N)ccc1OCc1ccc(Cl)cc1`, with 18.8 µM; and `CC1=NNC(=O)/C1=C\c1cn(-c2ccccc2)nc1-c1ccc(F)cc1`, with 15.5 µM; and `Cc1cccc(NC2=C(NC(=O)c3ccccc3)C(=O)c3ccccc3C2=O)c1`, with 19.7 µM.
The figure for `O=c1c2ccccc2nc(/C=C/c2ccc([N+](=O)[O-])o2)n1-c1ccc(O)cc1` is 14.9 µM.
The figure for `O=C(Nc1ccc(Nc2ccncc2)cc1)c1ccc([N+](=O)[O-])cc1` is 34.3 µM; for `COC(=O)C1=C(C)N(Cc2ccccc2)C(=NCC(C)C)N[C@H]1c1cccc(C(F)(F)F)c1` it is 17.4 µM; for `O=C(N/N=C/c1ccc(F)cc1)c1c(O)c2ccccc2[nH]c1=O` it is 26.9 µM.
As for `CCN(CC)CCNC(=O)c1c(C)n(-c2ccccc2)c2cc(Br)c(OC)cc12`, the AC50 is 19.8 µM.
Take `Cc1ccc2nc(N(CCCN(C)C)C(=O)c3ccc4c(c3)CCCC4)sc2c1`: the AC50 was 17.7 µM.
Then `COC(=O)C1=C(C)N(Cc2ccccc2)C(=NCc2ccccc2)N[C@H]1c1ccccc1`, with 26.8 µM.
The figure for `O=C1/C(=C/c2ccccc2[N+](=O)[O-])COc2ccccc21` is 34.1 µM; for `O=c1c(Cl)c2oc3ccccc3nc-2c2ccccc12` it is 5.67 µM; for `CCOC(=O)c1ccc2c(c1)n(CC)c(/C=C/N(C)c1ccccc1)[n+]2CC` it is 13.3 µM.
Then `COc1cccc2sc(N(CCCN(C)C)C(=O)C(c3ccccc3)c3ccccc3)nc12`, with 18.3 µM; and `COc1ccc(-c2nn(-c3ccccc3)cc2/C=N/N=C(N)N)cc1OC`, with 18 µM; and `CCOC(=O)c1ccc(NC2=CC(=O)C(=O)c3ccccc32)cc1`, with 14.3 µM.
For `Cc1ccc2c(c1)Oc1ccc(NC(=O)CCl)cc1C(=O)N2`, the AC50 was 9.65 µM.
With `COc1ccc(C(=O)/C=C/C(=O)N(CC(=O)NC2CCCCC2)Cc2ccccc2OC)c(O)c1`, the AC50 is 9.67 µM.
Then `CCOC(=O)CCc1ccc(NC(=O)/C=C/c2ccc([N+](=O)[O-])o2)cc1`, with 28.4 µM.
For `COC1=C(Nc2ccccc2)C(=O)c2ccccc2C1=O`, the AC50 is 5.11 µM.
Turning to `COc1cc(NC(=O)c2ccc([N+](=O)[O-])o2)ccc1NC(=O)c1cccs1`, the AC50 is 20.1 µM.
With `O=C(N/N=C/c1ccc([N+](=O)[O-])o1)c1ccc(O)cc1`, the AC50 is 16.7 µM.
The figure for `CCN(CC)CCNC(=O)c1ccc(NC(=O)c2cccc(S(=O)(=O)N3c4ccccc4CC3C)c2)cc1` (centres undefined) is 22.5 µM.
Consider `Cc1ccc(NC(=O)c2ncn(CCCN[C@H](C)c3cccc4ccccc34)n2)cc1C`, for which the AC50 was 25.8 µM.
The figure for `COCCCn1[nH]c2c3c(ccc2c1=O)C(=O)c1ccccc1C3=O` is 16.5 µM; for `COC(=O)c1c(NC(=O)c2nc3ccccc3s2)sc2c1CC(C)(C)NC2(C)C` it is 22.1 µM.
In the case of `O=C(Nc1ccc(S(=O)(=O)NC2=NCCCCC2)cc1)c1ccc([N+](=O)[O-])s1`, the AC50 was 23 µM.
Then `CC(C)(C)c1ccc(Cn2c(=N)n(CC(O)c3ccco3)c3ccccc32)cc1` (centres undefined), with 19.9 µM.
The figure for `CC(C)C1CC(CCNCc2ccc(N(C)C)cc2)(c2ccccc2)CCO1` (centres undefined) is 21.9 µM; for `Cc1ccccc1NC(=O)Cc1nc(COC(=O)c2ccc(S(C)(=O)=O)c([N+](=O)[O-])c2)cs1` it is 27.3 µM.
For `Cc1ccc(-c2cn(-c3ccc(SC(F)F)cc3)c3[n+]2CCC3)cc1`, the AC50 was 28 µM.
As for `O=C(NCC1CCCCC1)C1(CC2CC(c3cccc(Br)c3)=NO2)CCNCC1` (centres undefined), the AC50 was 18 µM.
In the case of `CCOc1ccc(-n2c(-c3ccc(OC)cc3)c[n+]3c2CCCCC3)cc1`, the AC50 was 19.6 µM.
Take `Cc1ccc(C(=O)N/N=C/c2ccc([N+](=O)[O-])s2)cc1`: the AC50 was 26.7 µM.
For `O=C1Nc2cc(C(=O)NCCN3CCCCCC3)ccc2S/C1=C\c1ccccc1`, the AC50 was 19.2 µM.
Then `Cc1ccc(Cn2c(=N)n(CC(=O)c3ccc([N+](=O)[O-])cc3)c3ccccc32)cc1`, with 21.9 µM; and `CCN(CC)CCC(=O)N1C/C(=C/c2ccccc2)C(=O)/C(=C\c2ccccc2)C1`, with 24 µM.
Regarding `O=[N+]([O-])c1cccc2c(N3CCCC3)ccnc12`, the AC50 is 15.3 µM.
Consider `CN(C)S(=O)(=O)c1ccc(-c2csc(N/N=C/c3ccco3)n2)cc1`, for which the AC50 is 16.2 µM.
The figure for `Cc1ccc(C(C)C)c(OCc2nn(CC(=O)c3ccc(OC(F)F)cc3)c3[n+]2CCCCC3)c1` is 20.2 µM.
As for `COc1cc(NC(=O)c2[nH]cnc2C(N)=O)cc(C(=O)Nc2cccc(C(F)(F)F)c2)c1`, the AC50 is 18.2 µM.
Then `CCS(=O)(=O)c1ccc(N=Nc2ccc(O)c3ncccc23)c(OC)c1`, with 33.5 µM; and `O=[N+]([O-])c1ccc(S(=O)(=O)CC(CN2CCCCC2)N2CCCCC2)cc1` (centres undefined), with 29.8 µM; and `N=c1n(CC(=O)c2ccc([N+](=O)[O-])cc2)c2ccccc2n1Cc1ccc(Cl)cc1`, with 16.9 µM.
Turning to `CC[n+]1c(/C=C/N(C)c2ccccc2)sc2ccc(Cl)cc21`, the AC50 was 19.8 µM.
Take `COc1cccc(CNCCc2c[nH]c3ccccc23)c1OCc1ccccc1`: the AC50 was 16.8 µM.
On to `COC1=C(c2ccccc2)C(=O)c2ccccc2C1=O`, for which the AC50 was 9.91 µM.
`Cc1c(N=C2C=CC(=O)c3ccccc32)c(=O)n(-c2ccccc2)n1C`: the AC50 was 30.9 µM.
The figure for `N=c1n(Cc2ccc(Cl)cc2)c2ccccc2n1CC(O)COc1ccccc1` (centres undefined) is 19.1 µM; for `COc1ccccc1NS(=O)(=O)c1cc(NC(=O)c2ccc(Cl)nc2)ccc1Cl` it is 24.3 µM.
`CCN(CC)CCCNC1=C(Cl)C(=O)c2ccccc2C1=O`: the half-maximal activity concentration (AC50) was 5.82 µM.
Regarding `N#CCc1ccc(NC(=O)/C=C/c2ccc([N+](=O)[O-])o2)cc1`, the AC50 was 31.2 µM.
`COc1cc2c(cc1OC)C(c1ccccc1)N(C(=O)CCl)CC2` (centres undefined): the AC50 was 22.6 µM.
Then `CC(=O)N(\C=C/C=C/C=C1\Sc2ccccc2C1=O)c1ccccc1`, with 21.2 µM; and `CC(C)=NOc1cc(NC(=O)CCl)cc([N+](=O)[O-])c1`, with 17.4 µM.
With `Cc1c(C(=O)Nc2ccc(S(=O)(=O)N(C)C3CCN(C)CC3)cc2)oc2c(Cl)cccc12`, the AC50 is 29.4 µM.
Then `Cc1cc(C)c2sc(N(CCCN(C)C)C(=O)COc3ccc(Cl)cc3)nc2c1`, with 24.7 µM; and `O=C(CCl)Nc1cccc(-c2cnc3ccccc3n2)c1`, with 17.3 µM; and `CCOc1cc(/C=N/N=C(N)N)ccc1OCc1ccc(Cl)cc1`, with 19.2 µM.
`CS(=O)(=O)c1ccc(C(=O)OCC(=O)NCc2cccs2)cc1[N+](=O)[O-]`: the AC50 was 29.7 µM.
Then `CC(=O)Nc1ccc(S(=O)(=O)NC2=C(N3CCN(C)CC3)C(=O)c3ccccc3C2=O)cc1`, with 22.8 µM.
With `CC(=O)Nc1sc(C)c(C)c1C(=O)OCC(=O)N(CC(C)C)c1c(N)n(Cc2ccccc2)c(=O)[nH]c1=O`, the concentration at half-maximal activity (AC50) is 8.38 µM.
The figure for `COC(=O)c1ccc2c(c1O)C(=O)c1ccccc1C2=O` is 3.74 µM; for `CN1CCN(C2=C(NS(=O)(=O)c3ccccc3)C(=O)c3ccccc3C2=O)CC1` it is 16.9 µM; for `O=C(Nc1ccc(N2CCN(C(=O)c3ccccc3)CC2)cc1)c1ccc([N+](=O)[O-])o1` it is 28.3 µM.
The figure for `O=C1C(Cl)=C(N2CCN(c3ccccc3[N+](=O)[O-])CC2)C(=O)c2ccccc21` is 10.8 µM.
Then `CC(=O)N(C)C1=C(N2CCOCC2)C(=O)c2ccccc2C1=O`, with 7.92 µM; and `O=C(N/N=C/c1cccc2cccnc12)c1ccccc1O`, with 32.9 µM.
Regarding `CCCCn1c(=N)n(CCOc2ccc(C)cc2)c2ccccc21`, the AC50 is 17.6 µM.
The figure for `Cc1cc(C)cc(NC(=O)c2ccc([N+](=O)[O-])o2)c1` is 27.7 µM.
Consider `Cc1ccccc1-c1nc(CN2CCC(C(=O)NCCCN3CCCC(C)C3)CC2)c(C)o1` (centres undefined), for which the AC50 was 28.9 µM.
The figure for `CC(=O)Nc1ccc(Nc2c3ccccc3nc3ccccc23)cc1` is 16.6 µM; for `c1ccc2cc3c(NCCN4CCOCC4)ccnc3cc2c1` it is 3.68 µM.
Then `CCN1CCN(CCCNC(=O)c2ccc3c(c2)NC(=O)/C(=C\c2cccc(C)c2)S3)CC1`, with 20.3 µM.
For the compound `CCCN1CCC(NCc2cn(C)nc2-c2ccc(Oc3ccccc3)cc2)CC1`, the AC50 is 22.3 µM.
Then `C#CC(=O)N(c1ccc(OC)c(OC)c1)C(C(=O)NC1CCCC1)c1cccs1` (centres undefined), with 22.1 µM; and `Cn1c(SCC(=O)N/N=C/c2ccc([N+](=O)[O-])s2)nnc1-c1ccccc1`, with 21.5 µM.
Then `CC1=CC2/C=C(\C)CCC(O)C(O)/C=C/C(=O)C23C(=O)NC(CC(C)C)C3C1C` (centres undefined), with 15.9 µM; and `CCN1CCN(C2=C(NS(=O)(=O)c3ccc(C)cc3)C(=O)c3ccccc3C2=O)CC1`, with 21.9 µM.
The figure for `O=C(CNc1cccc2ccccc12)N/N=C/c1ccc([N+](=O)[O-])o1` is 19.9 µM.
With `COCCN(CC(=O)NC1CCCCC1)C(=O)/C=C/C(=O)c1ccc(OC)cc1O`, the AC50 is 10.5 µM.
The figure for `COc1ccc(CCn2c(=S)[nH]c3cc(C(=O)NCc4ccco4)ccc3c2=O)cc1OC` is 22.8 µM.
Consider `O=C(/C=C/c1cccc([N+](=O)[O-])c1)c1cccs1`, for which the AC50 is 27.8 µM.
Then `O=C(Cn1ncc(Cl)c(Cl)c1=O)NC1CCCCC1`, with 20.5 µM.
Turning to `COc1ccc(-c2c[n+](CC(=O)OC3CC(C)CCC3C(C)C)c3n2CCC3)cc1` (centres undefined), the AC50 is 14.5 µM.
Turning to `Cc1cc(C)c2nc(N3CCC(C(=O)NCCCN4CC(C)CC(C)C4)CC3)sc2c1` (centres undefined), the AC50 was 18.3 µM.
Then `CC1CCC(C(C)C)C(OC(=O)Cn2c(-c3ccc(F)cc3)[n+](C)c3ccccc32)C1` (centres undefined), with 8.02 µM.
For the compound `CC(C)n1cc(/C=C/c2cc[n+](C)cc2)c2ccccc21`, the AC50 is 23 µM.
The figure for `Cn1cccc1C(=O)NC(=O)COC(=O)c1ccc(S(C)(=O)=O)c([N+](=O)[O-])c1` is 31.4 µM; for `O=C(CCl)Nc1ccc(Sc2ccc(NC(=O)CCl)cc2)cc1` it is 23.6 µM.
Then `Oc1c(CN2CCCCC2)cc(COCc2ccccc2)c2cccnc12`, with 16.9 µM.
The figure for `COc1cc(NC(=O)COc2cc(O)c3c(c2)OC(C)(C)CC3=O)cc(OC)c1OC` is 23.4 µM.
